According to patent publication US7754722B2, “Piperazine derivatives and methods of use” (Merck Serono SA, priority 2002, dated 2010):

Each compound was assayed against T1, FSH receptor (Homo sapiens, UniProt P23945) (assay: FSH assay: cAMP response element luciferase reporter in CHO cells expressing recombinant FSH receptor). Settings: agonist activity; CHO cells stably transfected with recombinant FSH receptor; luciferase luminescence; log-dose-response curves; incubation 37° C. for 3 hrs 30 min; read-out: ED50 (the source's name).
T1 construct: expressed in transfected cells; host or cells: CHO (Chinese Hamster Ovary) cells, stably transfected, carrying a cAMP response element-luciferase reporter
T1 sequence (P23945 18-695): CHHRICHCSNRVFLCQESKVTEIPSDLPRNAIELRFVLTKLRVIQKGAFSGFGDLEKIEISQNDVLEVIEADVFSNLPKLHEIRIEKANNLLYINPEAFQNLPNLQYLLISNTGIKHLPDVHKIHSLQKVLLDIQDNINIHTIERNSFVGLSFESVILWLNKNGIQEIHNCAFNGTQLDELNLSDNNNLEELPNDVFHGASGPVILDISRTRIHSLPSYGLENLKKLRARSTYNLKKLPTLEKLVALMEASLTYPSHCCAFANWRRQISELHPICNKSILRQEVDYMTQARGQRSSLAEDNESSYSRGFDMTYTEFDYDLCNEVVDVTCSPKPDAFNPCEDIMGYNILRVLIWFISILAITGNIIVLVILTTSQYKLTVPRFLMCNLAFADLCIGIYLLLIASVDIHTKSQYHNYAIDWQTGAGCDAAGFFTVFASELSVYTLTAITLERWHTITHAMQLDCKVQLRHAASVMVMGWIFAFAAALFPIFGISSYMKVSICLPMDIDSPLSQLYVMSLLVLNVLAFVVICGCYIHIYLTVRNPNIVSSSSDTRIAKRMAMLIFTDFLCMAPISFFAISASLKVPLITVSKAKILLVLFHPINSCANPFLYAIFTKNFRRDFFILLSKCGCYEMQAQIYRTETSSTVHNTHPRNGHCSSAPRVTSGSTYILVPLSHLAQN
Assay type: cell-based
Description: Compounds of the invention were tested in the following assay.
All compounds of the invention were stored in 96-well deepwell plates in DMSO at a nominal concentration of 10 μM. Compounds of the invention were screened for agonist activity at the FSH receptor using the recombinant FSH receptor stably transfected and expressed in Chinese Hamster Ovary Cells (CHO cells) essentially as described in the work by Kelton, et al. Molecular and Cellular Endocrinology, 1992, 89, 141-151). […] Thus an agonist at the FSH receptor increases cAMP in the cell which results in activation of the CREB (cAMP) response element binding protein). The substrate for the enzyme (Packard Instrument Company 800 Research Parkway, Meriden, Conn. 06450, USA) was added to the cells after appropriate incubation with the compounds or FSH and the amount of luciferase expressed was measured by quantitating the luminescence produced by the enzyme using a TopCount scintillation/luminescence counter running in single photon counting mode. A compound which acts as an agonist at the receptor should produce light from the treated cells in proportion to its concentration within the incubation. Luminescence should be saturable at high concentrations of the compound.
The compounds of the invention, in deepwell plates (Master plates) as indicated above were loaded on the robotic deck along with the appropriate number of assay plates and daughter plates. A 10 μl aliquot from each master plate was transferred to the corresponding daughter plate and 90 μl of DME/F12 was added and mixed within each well. 20 μl was then removed from the daughter plate and dispensed into the assay plate. After addition of an aliquot of FSH (equivalent to an EC100 response for this hormone to each of three wells on the plate, 80 μl of media (DME/F 12±2% serum) and 100 μl aliquot of cells (4×10^5/ml in the same media) were added and the plate incubated at 37° C. for 3 hrs 30 min. At this time the plate was removed from the incubator and media in each well was aspirated and the cells adhering to the bottom of the plate washed with 300 μl PBS containing 1 mM Ca^2+ and 1 mM Mg^2+. The PBS was aspirated and 100 μl PBS added to each well. 100 μl of Lucite (prepared as described by the manufacturer) was added to each well and the plate was shaken gently for 40 seconds prior to placement in the TopCount plate reader. After allowing 3.5 minutes for the plate to dark-adapt within the machine, the amount of luminescence generated was quantitated using Single Photon Counting mode. The data was transmitted electronically from the TopCount to the robot processing computer terminal and was renamed with an ID corresponding to the original master plate ID. […] LDR (log-dose-response) curves were generated for these compounds in CHO cells containing the FSH receptor and these curves were also compared with those in either cells expressing a different Gs linked receptor or in cells lacking any transfected receptor.

| SMILES | EC50 [nM] |
| --- | --- |
| CCOC(=O)CNC(=O)N1CCN(S(=O)(=O)c2cccs2)[C@H](C(=O)Nc2ccc3c(c2)c2ccccc2n3CC)C1 [{[3-(9-ethyl-9H-carbazol-3-ylcarbamoyl)-4-(thiophene-2-sulfonyl)-piperazine-1-carbonyl]-amino}acetic acid ethyl ester] | 408 |
| CCCCCNC(=O)N1CCN(S(=O)(=O)c2cccs2)[C@H](C(=O)Nc2ccc3c(c2)c2ccccc2n3CC)C1 [4-(thiophene-2-sulfonyl)-piperazine-1,3-dicarboxylic acid 3-[(9-ethyl-9H-carbazol-3-yl)amide]-1-pentylamide] | 63 |
| CCCCCCN1CCN(S(=O)(=O)c2cccs2)[C@H](C(=O)Nc2ccc3[nH]c4c(c3c2)CCNC4=O)C1 [4-hexyl-1-(thiophene-2-sulfonyl)-piperazine-2-carboxylic acid (1-oxo-2,3,4,9-tetrahydro-1H-beta-carbolin-6-yl)-amide] | 978 |
| CCCCCCCN1CCN(S(=O)(=O)c2cccs2)[C@H](C(=O)Nc2ccc3c(c2)nc(-c2cccnc2)n3CC)C1 [4-heptyl-1-(thiophene-2-sulfonyl)-piperazine-2-carboxylic acid (1-ethyl-2-pyridin-3-yl-1H-benzoimidazol-5-yl)-amide] | 94 |
| CCCCCCN1CCN(S(=O)(=O)c2ccccc2)[C@H](C(=O)Nc2ccc3c(c2)nc(-c2cccnc2)n3CC)C1 [1-benzenesulfonyl-4-hexyl-piperazine-2-carboxylic acid (1-ethyl-2-pyridin-3-yl-1H-benzoimidazol-5-yl)amide] | 150 |
| CCCCCN1CCN(S(=O)(=O)c2cccs2)[C@H](C(=O)Nc2ccc3c(c2)nc(-c2cccnc2)n3CC)C1 [4-pentyl-1-thiophene-2-sulfonyl)-piperazine-2-carboxylic acid (1-ethyl-2-pyridin-3-yl-1H-benzoimidazol-5-yl)amide] | 150 |
